In paper PMC5341770 (Nature microbiology, 2017):

Target: T1, WarA (PA4379) (Pseudomonas aeruginosa, UniProt Q9HW23)
T1 sequence (Q9HW23 1-227): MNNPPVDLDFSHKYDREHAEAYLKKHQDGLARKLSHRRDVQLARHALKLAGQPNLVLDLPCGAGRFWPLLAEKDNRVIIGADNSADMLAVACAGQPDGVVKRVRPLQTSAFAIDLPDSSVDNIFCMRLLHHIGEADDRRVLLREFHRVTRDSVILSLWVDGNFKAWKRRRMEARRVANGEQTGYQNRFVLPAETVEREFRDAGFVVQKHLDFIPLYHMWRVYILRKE
Conditions: methyl acceptor: LPS from a warA deletion mutant

Compound: C[S+](CC[C@H](N)C(=O)O)C[C@H]1O[C@@H](n2cnc3c(N)ncnc32)[C@H](O)[C@@H]1O (stereo partly drawn) [S-adenosyl-L-methionine]
- fluorescent methyltransferase activity kit: using S-adenosyl-L-methionine as the methyl group donor and measuring activity in relative fluorescent units
